Reference: patent US20120149574A1, “Methods and Compositions for Managing Water Quality in a Body of Water” (priority 2010, published 2012)

Tests used:
algae [1] = experiment: Comparative pond treatment vs. copper sulfate alone, multiple applications: algae; type: in vivo, green algae (Chlorophyta), cyanobacteria (Cyanophyta)
Description: (§1) One pond was treated with a liquid composition prepared as in Example 1 (hereinafter termed “Composition E1”) and the other with copper sulfate pentahydrate. Both ponds were treated with the same concentration of copper on the same days. Five algaecide applications, each approximately one week apart, were conducted on the corresponding pond as a surface spray. The first application was a 1 ppm copper rate, whereas the following applications were all 0.5 ppm copper. All five treatments were completed by the 34th day following the initial treatment (“DAT”), though water sampling continued to evaluate changes in algae growth and water clarity. Representative water samples were periodically collected from each of the ponds at the same durations following treatments. […] As mentioned previously, when used alone, alum is generally applied at such high doses that a buffer is concurrently applied to prevent dramatic changes in water quality that can result in acute toxicity to aquatic organisms.

algae [2] = experiment: Comparative pond treatment vs. copper sulfate alone, single application: algae; type: in vivo, green algae (Chlorophyta), cyanobacteria (Cyanophyta)
Description: (§2) Two ponds of similar dimensions (0.1 surface acres, 4 foot average depth) and similar water character, located beside each other, were used in this experiment. Both ponds were treated once (immediately following the initial sampling event) with the same concentration of copper, 1 ppm, and monitored through time. One pond was treated with Composition E1 and the other with copper sulfate pentahydrate. The objectives were 1) to evaluate the change in algae assemblage composition, 2) to measure algaecidal impacts and re-growth of algae, 3) to measure changes in phosphorus and turbidity following treatment.

[3] = Comparative pond treatment, single application: turbidity and total phosphorus; details: single application 1 ppm copper
Description: as §2

[4] = Comparative pond treatment, multiple applications: turbidity, phosphorus, water quality; details: five applications, FIGS. 11 and 12
Description: as §1

For `O.O.O.O.O.O=S(=O)([O-])[O-].[Cu+2]` [copper sulfate, copper sulfate pentahydrate], the “chlorophyll levels following cessation of the algaecide treatments” value (algae [1]; after fifth application (34 DAT) (FIG. 9)) was “rapidly and significantly increased”, the algal assemblage composition (algae [1]; during and after five applications (FIGS. 13 and 14)) was “cyanobacteria (Cyanophyta) became dominant” and the “chlorophyll a concentration, highest measurements” value (algae [1]; five applications (1 ppm then 0.5 ppm copper), sampling to 69 DAT (FIG. 9), copper sulfate: many measurements, Composition E1: on one occasion) was “exceeding 100 μg/L”. For the same molecule, the “algal assemblage following treatment” value (algae [2]; single application 1 ppm copper (FIGS. 18 and 19)) was “remained dominated by cyanobacteria”, the “decrease of treated algae” value (algae [2]; single application 1 ppm copper, 7 DAT) was 78% and the chlorophyll a (algae [2]; single application 1 ppm copper, 7 DAT (FIG. 15)) was “significantly decreased”. The chlorophyll a (algae [2]; single application 1 ppm copper, 14 DAT (FIG. 15)) was “significantly higher”, the “increase in algal densities” value (algae [2]; single application 1 ppm copper, between 7 and 14 DAT) was 350% and the total phosphorus ([3]; 7 DAT (FIG. 17)) was “little change”. For the same molecule, the total phosphorus ([3]; 14 DAT vs initial (FIG. 17)) was “notable increase from initial levels” and the “total phosphorus (TP) and free reactive phosphorus (FRP) concentrations over time” value [4] was “substantially higher than the Composition E1-treated pond”.
